Laboratory results as given in the NIST ThermoML archive (doi:10.1016/j.jct.2004.12.014).
± gives the expanded uncertainty stated by the source.

Legend:
[1] = xn = mol fraction of the nth substance listed; conditions: 318.15 K, 101 kPa, Liquid
[2] = excess molar enthalpy (molar enthalpy of mixing); xn = mol fraction of the nth substance listed; conditions: 318.15 K, 101 kPa, Liquid

Compound `CCCOC(=O)CC` [propyl propanoate] + CCCCCCCCC has an excess molar volume ([1]; x1 = 0.0358) of 1.43e-07 ± 1.6e-08 m3/mol, an excess molar volume ([1]; x1 = 0.0804) of 2.79e-07 ± 1.7e-08 m3/mol and an excess molar volume ([1]; x1 = 0.1547) of 4.77e-07 ± 1.8e-08 m3/mol. For the same compound, the excess molar volume ([1]; x1 = 0.2247) was 6.11e-07 ± 1.8e-08 m3/mol, the excess molar volume ([1]; x1 = 0.2939) was 7.16e-07 ± 1.9e-08 m3/mol and the excess molar volume ([1]; x1 = 0.3601) was 7.97e-07 ± 1.9e-08 m3/mol. The excess molar volume ([1]; x1 = 0.4243) was 8.28e-07 ± 1.9e-08 m3/mol, the excess molar volume ([1]; x1 = 0.4879) was 8.32e-07 ± 1.9e-08 m3/mol and the excess molar volume ([1]; x1 = 0.5463) was 8.3e-07 ± 1.9e-08 m3/mol. It also gave an excess molar volume ([1]; x1 = 0.6022) of 7.94e-07 ± 1.9e-08 m3/mol, an excess molar volume ([1]; x1 = 0.6569) of 7.54e-07 ± 1.9e-08 m3/mol and an excess molar volume ([1]; x1 = 0.7113) of 6.79e-07 ± 1.9e-08 m3/mol. It also gave an excess molar volume ([1]; x1 = 0.7635) of 6.03e-07 ± 1.8e-08 m3/mol, an excess molar volume ([1]; x1 = 0.8139) of 4.89e-07 ± 1.8e-08 m3/mol and an excess molar volume ([1]; x1 = 0.8623) of 4.1e-07 ± 1.7e-08 m3/mol. For the same compound, the excess molar volume ([1]; x1 = 0.9092) was 3.02e-07 ± 1.7e-08 m3/mol, the excess molar volume ([1]; x1 = 0.9537) was 1.55e-07 ± 1.6e-08 m3/mol and the excess molar enthalpy ([2]; x1 = 0.0729) was 0.0736 ± 0.00155 kcal/mol. For the same compound, the excess molar enthalpy ([2]; x1 = 0.1505) was 0.13 ± 0.00239 kcal/mol, the excess molar enthalpy ([2]; x1 = 0.2274) was 0.179 ± 0.00311 kcal/mol and the excess molar enthalpy ([2]; x1 = 0.3035) was 0.216 ± 0.00382 kcal/mol. It also gave an excess molar enthalpy ([2]; x1 = 0.3733) of 0.239 ± 0.00406 kcal/mol, an excess molar enthalpy ([2]; x1 = 0.4372) of 0.25 ± 0.0043 kcal/mol and an excess molar enthalpy ([2]; x1 = 0.4858) of 0.252 ± 0.0043 kcal/mol. It also gave an excess molar enthalpy ([2]; x1 = 0.5248) of 0.252 ± 0.0043 kcal/mol, an excess molar enthalpy ([2]; x1 = 0.5688) of 0.248 ± 0.0043 kcal/mol and an excess molar enthalpy ([2]; x1 = 0.6152) of 0.239 ± 0.00406 kcal/mol. It also gave an excess molar enthalpy ([2]; x1 = 0.6667) of 0.223 ± 0.00382 kcal/mol, an excess molar enthalpy ([2]; x1 = 0.7215) of 0.198 ± 0.00335 kcal/mol and an excess molar enthalpy ([2]; x1 = 0.7776) of 0.169 ± 0.00311 kcal/mol. The excess molar enthalpy ([2]; x1 = 0.8356) was 0.135 ± 0.00239 kcal/mol, the excess molar enthalpy ([2]; x1 = 0.8948) was 0.0929 ± 0.00184 kcal/mol and the excess molar enthalpy ([2]; x1 = 0.951) was 0.0476 ± 0.00115 kcal/mol.
Compound `CCCCOC(=O)CC` [butyl propanoate] + CCCCCCCCC has an excess molar volume ([1]; x1 = 0.0333) of 9.9e-08 ± 1.6e-08 m3/mol, an excess molar volume ([1]; x1 = 0.0721) of 1.95e-07 ± 1.6e-08 m3/mol and an excess molar volume ([1]; x1 = 0.139) of 3.26e-07 ± 1.7e-08 m3/mol. It also gave an excess molar volume ([1]; x1 = 0.2059) of 4.35e-07 ± 1.8e-08 m3/mol, an excess molar volume ([1]; x1 = 0.2687) of 5.18e-07 ± 1.8e-08 m3/mol and an excess molar volume ([1]; x1 = 0.3345) of 5.69e-07 ± 1.8e-08 m3/mol. The excess molar volume ([1]; x1 = 0.3947) was 5.89e-07 ± 1.8e-08 m3/mol, the excess molar volume ([1]; x1 = 0.4555) was 6.09e-07 ± 1.8e-08 m3/mol and the excess molar volume ([1]; x1 = 0.5165) was 6.08e-07 ± 1.8e-08 m3/mol. The excess molar volume ([1]; x1 = 0.5747) was 5.79e-07 ± 1.8e-08 m3/mol, the excess molar volume ([1]; x1 = 0.6293) was 5.5e-07 ± 1.8e-08 m3/mol and the excess molar volume ([1]; x1 = 0.6868) was 5.08e-07 ± 1.8e-08 m3/mol. It also gave an excess molar volume ([1]; x1 = 0.7408) of 4.43e-07 ± 1.8e-08 m3/mol, an excess molar volume ([1]; x1 = 0.7931) of 3.73e-07 ± 1.7e-08 m3/mol and an excess molar volume ([1]; x1 = 0.8466) of 3.03e-07 ± 1.7e-08 m3/mol. It also gave an excess molar volume ([1]; x1 = 0.8978) of 2.16e-07 ± 1.7e-08 m3/mol, an excess molar volume ([1]; x1 = 0.9473) of 1.21e-07 ± 1.6e-08 m3/mol and an excess molar enthalpy ([2]; x1 = 0.0694) of 0.0639 ± 0.00139 kcal/mol. The excess molar enthalpy ([2]; x1 = 0.1491) was 0.116 ± 0.00217 kcal/mol, the excess molar enthalpy ([2]; x1 = 0.2269) was 0.159 ± 0.00287 kcal/mol and the excess molar enthalpy ([2]; x1 = 0.302) was 0.189 ± 0.00335 kcal/mol. The excess molar enthalpy ([2]; x1 = 0.3723) was 0.207 ± 0.00359 kcal/mol, the excess molar enthalpy ([2]; x1 = 0.4365) was 0.215 ± 0.00359 kcal/mol and the excess molar enthalpy ([2]; x1 = 0.4936) was 0.215 ± 0.00359 kcal/mol. For the same compound, the excess molar enthalpy ([2]; x1 = 0.5364) was 0.213 ± 0.00359 kcal/mol, the excess molar enthalpy ([2]; x1 = 0.5441) was 0.211 ± 0.00359 kcal/mol and the excess molar enthalpy ([2]; x1 = 0.5775) was 0.21 ± 0.00359 kcal/mol. The excess molar enthalpy ([2]; x1 = 0.5891) was 0.207 ± 0.00359 kcal/mol, the excess molar enthalpy ([2]; x1 = 0.6309) was 0.2 ± 0.00359 kcal/mol and the excess molar enthalpy ([2]; x1 = 0.6873) was 0.184 ± 0.00311 kcal/mol. For the same compound, the excess molar enthalpy ([2]; x1 = 0.7512) was 0.159 ± 0.00287 kcal/mol, the excess molar enthalpy ([2]; x1 = 0.8149) was 0.128 ± 0.00237 kcal/mol and the excess molar enthalpy ([2]; x1 = 0.8787) was 0.089 ± 0.00177 kcal/mol. It also gave an excess molar enthalpy ([2]; x1 = 0.9424) of 0.0465 ± 0.00112 kcal/mol.
`CCC(=O)OC` [methyl propanoate] + CCCCCCC showed an excess molar volume ([1]; x1 = 0.0406) of 2.5e-07 ± 1.7e-08 m3/mol, an excess molar volume ([1]; x1 = 0.0927) of 5.08e-07 ± 1.8e-08 m3/mol and an excess molar volume ([1]; x1 = 0.1719) of 8.36e-07 ± 1.9e-08 m3/mol. It also gave an excess molar volume ([1]; x1 = 0.248) of 1.063e-06 ± 2e-08 m3/mol, an excess molar volume ([1]; x1 = 0.3249) of 1.222e-06 ± 2.1e-08 m3/mol and an excess molar volume ([1]; x1 = 0.3904) of 1.27e-06 ± 2.1e-08 m3/mol. For the same compound, the excess molar volume ([1]; x1 = 0.4571) was 1.288e-06 ± 2.1e-08 m3/mol, the excess molar volume ([1]; x1 = 0.5214) was 1.254e-06 ± 2.1e-08 m3/mol and the excess molar volume ([1]; x1 = 0.5761) was 1.192e-06 ± 2.1e-08 m3/mol. It also gave an excess molar volume ([1]; x1 = 0.6333) of 1.105e-06 ± 2.1e-08 m3/mol, an excess molar volume ([1]; x1 = 0.6853) of 1.008e-06 ± 2e-08 m3/mol and an excess molar volume ([1]; x1 = 0.7372) of 9.01e-07 ± 2e-08 m3/mol. For the same compound, the excess molar volume ([1]; x1 = 0.7844) was 7.75e-07 ± 1.9e-08 m3/mol, the excess molar volume ([1]; x1 = 0.8305) was 6.37e-07 ± 1.8e-08 m3/mol and the excess molar volume ([1]; x1 = 0.8748) was 4.85e-07 ± 1.8e-08 m3/mol. The excess molar volume ([1]; x1 = 0.9184) was 3.36e-07 ± 1.7e-08 m3/mol, the excess molar volume ([1]; x1 = 0.9596) was 1.83e-07 ± 1.6e-08 m3/mol and the excess molar enthalpy ([2]; x1 = 0.0703) was 0.0855 ± 0.00174 kcal/mol. It also gave an excess molar enthalpy ([2]; x1 = 0.154) of 0.176 ± 0.00311 kcal/mol, an excess molar enthalpy ([2]; x1 = 0.2369) of 0.249 ± 0.0043 kcal/mol and an excess molar enthalpy ([2]; x1 = 0.3018) of 0.296 ± 0.00502 kcal/mol. It also gave an excess molar enthalpy ([2]; x1 = 0.3693) of 0.331 ± 0.0055 kcal/mol, an excess molar enthalpy ([2]; x1 = 0.4258) of 0.35 ± 0.00574 kcal/mol and an excess molar enthalpy ([2]; x1 = 0.4809) of 0.362 ± 0.00598 kcal/mol. For the same compound, the excess molar enthalpy ([2]; x1 = 0.5084) was 0.363 ± 0.00598 kcal/mol, the excess molar enthalpy ([2]; x1 = 0.5258) was 0.363 ± 0.00598 kcal/mol and the excess molar enthalpy ([2]; x1 = 0.5447) was 0.361 ± 0.00598 kcal/mol. The excess molar enthalpy ([2]; x1 = 0.586) was 0.353 ± 0.00598 kcal/mol, the excess molar enthalpy ([2]; x1 = 0.6301) was 0.34 ± 0.00574 kcal/mol and the excess molar enthalpy ([2]; x1 = 0.6752) was 0.32 ± 0.00526 kcal/mol. For the same compound, the excess molar enthalpy ([2]; x1 = 0.7232) was 0.295 ± 0.00502 kcal/mol, the excess molar enthalpy ([2]; x1 = 0.7744) was 0.259 ± 0.0043 kcal/mol and the excess molar enthalpy ([2]; x1 = 0.8241) was 0.215 ± 0.00382 kcal/mol. The excess molar enthalpy ([2]; x1 = 0.8704) was 0.168 ± 0.00311 kcal/mol, the excess molar enthalpy ([2]; x1 = 0.9177) was 0.112 ± 0.00217 kcal/mol and the excess molar enthalpy ([2]; x1 = 0.9639) was 0.0537 ± 0.00131 kcal/mol.
